Measured values as given in patent US12077503B2, “Substituted cyclic amides and their use as herbicides” (FMC CORPORATION, priority 2015, dated 2024).
Read-outs that look alike come from different tables or passages of the source.

Columns and labels:
Type in all cases: in vivo
[1] = system: ragweed (common ragweed, Ambrosia elatior); assay: Test A preemergence; conditions: Ambrosia artemisiifolia, pre-emergence, 240 h; for pest or weed control at 500 g/ha: 500 g ai/ha; for pest or weed control at 125 g/ha: 125 g ai/ha
In short: (§1)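 Greenhouse, ~10 d after spray; visual injury vs untreated controls, 0 = no effect, 100 = complete control. Preemergence: directed soil spray over planted seeds. Postemergence: plants 2–10 cm, 1–2 leaf stage. Loam/sand blend. Compound in non-phytotoxic solvent with surfactant.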

[2] = system: ryegrass, Italian (Italian ryegrass, Lolium multiflorum); assay: Test A preemergence; conditions: Lolium multiflorum, pre-emergence, 240 h; for pest or weed control at 125 g/ha: 125 g ai/ha
In short: as §1

[3] = system: pigweed (Amaranthus retroflexus); assay: Test A preemergence; conditions: Amaranthus retroflexus, pre-emergence, 240 h; for pest or weed control at 500 g/ha: 500 g ai/ha; for pest or weed control at 125 g/ha: 125 g ai/ha
[4] = system: barnyardgrass (Echinochloa crus-galli); assay: Test A preemergence; conditions: Echinochloa crus-galli, pre-emergence, 240 h; for pest or weed control at 500 g/ha: 500 g ai/ha; for pest or weed control at 125 g/ha: 125 g ai/ha
In short: as §1

Kochia (Kochia scoparia) [5] = assay: Test A preemergence; conditions: Bassia scoparia, pre-emergence, 240 h; for pest or weed control at 500 g/ha: 500 g ai/ha; for pest or weed control at 125 g/ha: 125 g ai/ha
In short: as §1

[6] = system: giant foxtail (Setaria faberii); assay: Test A preemergence; conditions: Setaria faberi, pre-emergence, 240 h; for pest or weed control at 500 g/ha: 500 g ai/ha; for pest or weed control at 125 g/ha: 125 g ai/ha
In short: as §1

[7] = system: blackgrass (Alopecurus myosuroides); assay: Test A postemergence; conditions: Alopecurus myosuroides, post-emergence, 240 h; for pest or weed control at 125 g/ha: 125 g ai/ha, read-out: Blackgrass plant response rating (0 to 100 scale); for pest or weed control at 500 g/ha: 500 g ai/ha, visual injury, 0 to 100 scale (0 no effect, 100 complete control), approx. 10 d, read-out: Plant response rating, Blackgrass
In short: as §1

corn (Zea mays) = assay: Test A postemergence; conditions: Zea mays, post-emergence, 240 h; for plant injury at 125 g/ha: 125 g ai/ha, read-out: Corn plant response rating (0 to 100 scale); for Corn plant response rating (crop injury, 0 = no effect, 100 = complete kill) at 500 g/ha: 500 g ai/ha, visual injury, 0 to 100 scale (0 no effect, 100 complete control), approx. 10 d
In short: as §1

[8] = system: ragweed (common ragweed, Ambrosia elatior); assay: Test A postemergence; conditions: Ambrosia artemisiifolia, post-emergence, 240 h; for pest or weed control at 125 g/ha: 125 g ai/ha, read-out: Ragweed plant response rating (0 to 100 scale); for pest or weed control at 500 g/ha: 500 g ai/ha, visual injury, 0 to 100 scale (0 no effect, 100 complete control), approx. 10 d, read-out: Plant response rating, Ragweed
In short: as §1

[9] = system: pigweed (Amaranthus retroflexus); assay: Test A postemergence; conditions: Amaranthus retroflexus, post-emergence, 240 h; for pest or weed control at 125 g/ha: 125 g ai/ha, read-out: Pigweed plant response rating (0 to 100 scale); for pest or weed control at 500 g/ha: 500 g ai/ha, visual injury, 0 to 100 scale (0 no effect, 100 complete control), approx. 10 d, read-out: Plant response rating, Pigweed
In short: as §1

[10] = system: Galium (catchweed bedstraw, Galium aparine); assay: Test A postemergence; conditions: Galium, post-emergence, 240 h; for pest or weed control at 125 g/ha: 125 g ai/ha, read-out: Galium plant response rating (0 to 100 scale); for pest or weed control at 500 g/ha: 500 g ai/ha, visual injury, 0 to 100 scale (0 no effect, 100 complete control), approx. 10 d, read-out: Plant response rating, Galium
In short: as §1

[11] = system: barnyardgrass (Echinochloa crus-galli); assay: Test A postemergence; conditions: Echinochloa crus-galli, post-emergence, 240 h; for pest or weed control at 125 g/ha: 125 g ai/ha; for pest or weed control at 500 g/ha: 500 g ai/ha, visual injury, 0 to 100 scale (0 no effect, 100 complete control), approx. 10 d, read-out: Plant response rating, Barnyardgrass
In short: as §1

Kochia (Kochia scoparia) [12] = assay: Test A postemergence; conditions: Bassia scoparia, post-emergence, 240 h; for pest or weed control at 125 g/ha: 125 g ai/ha, read-out: Kochia plant response rating (0 to 100 scale); for pest or weed control at 500 g/ha: 500 g ai/ha, visual injury, 0 to 100 scale (0 no effect, 100 complete control), approx. 10 d, read-out: Plant response rating, Kochia
In short: as §1

[13] = system: wheat (Triticum aestivum); assay: Test A postemergence; conditions: Triticum aestivum, post-emergence, 240 h, Postemergence; for plant injury at 500 g/ha: 500 g ai/ha, visual injury, 0 to 100 scale (0 no effect, 100 complete control), approx. 10 d, read-out: Plant response rating, Wheat
In short: as §1

[14] = system: giant foxtail (Setaria faberii); assay: Test A postemergence; conditions: Setaria faberi, post-emergence, 240 h; for pest or weed control at 125 g/ha: 125 g ai/ha, read-out: Foxtail, Giant plant response rating (0 to 100 scale); for pest or weed control at 500 g/ha: 500 g ai/ha, visual injury, 0 to 100 scale (0 no effect, 100 complete control), approx. 10 d, read-out: Plant response rating, Foxtail, Giant
In short: as §1

[15] = preemergence, 0 to 100 scale where 0 is no effect and 100 is complete control, read-out: Ragweed plant response rating
[16] = preemergence, 0 to 100 scale where 0 is no effect and 100 is complete control, read-out: Pigweed plant response rating
[17] = preemergence, 0 to 100 scale where 0 is no effect and 100 is complete control, read-out: Barnyardgrass plant response rating
[18] = preemergence, 0 to 100 scale where 0 is no effect and 100 is complete control, read-out: Kochia plant response rating
[19] = preemergence, 0 to 100 scale where 0 is no effect and 100 is complete control, read-out: Foxtail, Giant plant response rating
[20] = Postemergence, visual rating about 10 d after treatment
[21] = postemergence, visual injury vs untreated controls after approx. 10 d, 0 = no effect, 100 = complete control

Cc1c(F)ccc([C@H]2CNC(=O)[C@@H]2C(=O)Nc2ccccc2F)c1F [Compound 1326]
pest or weed control at 500 g/ha [1, 15]: 0% | pest or weed control at 125 g/ha ([1]; Preemergence, 0 to 100 scale (0 no effect, 100 complete control), read-out: Plant response rating, Ragweed): 0% | pest or weed control at 125 g/ha ([2]; Preemergence, 0 to 100 scale (0 no effect, 100 complete control), read-out: Plant response rating, Ryegrass, Italian): 20% | pest or weed control at 500 g/ha [3, 16]: 0% | pest or weed control at 125 g/ha ([3]; Preemergence, 0 to 100 scale (0 no effect, 100 complete control), read-out: Plant response rating, Pigweed): 0% | pest or weed control at 500 g/ha [4, 17]: 90% | pest or weed control at 125 g/ha ([4]; Preemergence, 0 to 100 scale (0 no effect, 100 complete control), read-out: Plant response rating, Barnyardgrass): 80% | pest or weed control at 500 g/ha (Kochia (Kochia scoparia) [5]; [18]): 100% | pest or weed control at 125 g/ha (Kochia (Kochia scoparia) [5]; Preemergence, 0 to 100 scale (0 no effect, 100 complete control), read-out: Plant response rating, Kochia): 30% | pest or weed control at 500 g/ha [6, 19]: 90% | pest or weed control at 125 g/ha ([6]; Preemergence, 0 to 100 scale (0 no effect, 100 complete control), read-out: Plant response rating, Foxtail, Giant): 60% | pest or weed control at 125 g/ha [7, 20]: 0% | pest or weed control at 500 g/ha ([7]; Postemergence): 0% | plant injury at 125 g/ha (corn (Zea mays); [20]): 0% | Corn plant response rating (crop injury, 0 = no effect, 100 = complete kill) at 500 g/ha (corn (Zea mays); Postemergence): 0% | pest or weed control at 125 g/ha [8, 20]: 0% | pest or weed control at 500 g/ha ([8]; Postemergence): 0% | pest or weed control at 125 g/ha [9, 20]: 0% | pest or weed control at 500 g/ha ([9]; Postemergence): 0% | pest or weed control at 125 g/ha [10, 20]: 0% | pest or weed control at 500 g/ha ([10]; Postemergence): 20% | pest or weed control at 125 g/ha ([11]; Postemergence, visual rating about 10 d after treatment, read-out: Barnyardgrass plant response rating (0 to 100 scale, 0 no effect, 100 complete control)): 70% | pest or weed control at 500 g/ha ([11]; Postemergence): 90% | pest or weed control at 125 g/ha (Kochia (Kochia scoparia) [12]; [20]): 0% | pest or weed control at 500 g/ha (Kochia (Kochia scoparia) [12]; Postemergence): 0% | plant injury at 125 g/ha ([13]; 125 g ai/ha, visual rating about 10 d after treatment, read-out: Wheat plant response rating (0 to 100 scale)): 0% | plant injury at 500 g/ha [13]: 0% | pest or weed control at 125 g/ha [14, 20]: 0% | pest or weed control at 500 g/ha ([14]; Postemergence): 0%

CN1C[C@H](c2ccc(C(F)F)cc2)[C@@H](C(=O)Nc2ccc(F)c(F)c2F)C1=O [Compound 1260]
pest or weed control at 125 g/ha ([1]; preemergence, visual injury rating, 0 to 100 scale where 0 is no effect and 100 is complete control, approximately 10 d, read-out: Ragweed plant response rating): 80% | pest or weed control at 500 g/ha [1, 15]: 90% | pest or weed control at 125 g/ha ([2]; preemergence, visual injury rating, 0 to 100 scale where 0 is no effect and 100 is complete control, approximately 10 d, read-out: Ryegrass, Italian plant response rating): 50% | pest or weed control at 500 g/ha ([2]; 500 g ai/ha, preemergence, 0 to 100 scale where 0 is no effect and 100 is complete control, read-out: Ryegrass, Italian plant response rating): 60% | pest or weed control at 125 g/ha ([3]; preemergence, visual injury rating, 0 to 100 scale where 0 is no effect and 100 is complete control, approximately 10 d, read-out: Pigweed plant response rating): 90% | pest or weed control at 500 g/ha [3, 16]: 90% | pest or weed control at 125 g/ha ([4]; preemergence, visual injury rating, 0 to 100 scale where 0 is no effect and 100 is complete control, approximately 10 d, read-out: Barnyardgrass plant response rating): 90% | pest or weed control at 500 g/ha [4, 17]: 100% | pest or weed control at 125 g/ha (Kochia (Kochia scoparia) [5]; preemergence, visual injury rating, 0 to 100 scale where 0 is no effect and 100 is complete control, approximately 10 d, read-out: Kochia plant response rating): 80% | pest or weed control at 500 g/ha (Kochia (Kochia scoparia) [5]; [18]): 90% | pest or weed control at 125 g/ha ([6]; preemergence, visual injury rating, 0 to 100 scale where 0 is no effect and 100 is complete control, approximately 10 d, read-out: Foxtail, Giant plant response rating): 90% | pest or weed control at 500 g/ha [6, 19]: 90% | pest or weed control at 125 g/ha [7, 21]: 70% | pest or weed control at 500 g/ha ([7]; Postemergence): 80% | plant injury at 125 g/ha (corn (Zea mays); [21]): 90% | Corn plant response rating (crop injury, 0 = no effect, 100 = complete kill) at 500 g/ha (corn (Zea mays); Postemergence): 90% | pest or weed control at 125 g/ha [8, 21]: 50% | pest or weed control at 500 g/ha ([8]; Postemergence): 70% | pest or weed control at 125 g/ha [9, 21]: 50% | pest or weed control at 500 g/ha ([9]; Postemergence): 70% | pest or weed control at 125 g/ha [10, 21]: 70% | pest or weed control at 500 g/ha ([10]; Postemergence): 70% | pest or weed control at 125 g/ha ([11]; postemergence, visual injury vs untreated controls after approx. 10 d, 0 = no effect, 100 = complete control, read-out: Barnyardgrass plant response rating (0 to 100 scale)): 90% | pest or weed control at 500 g/ha ([11]; Postemergence): 90% | pest or weed control at 125 g/ha (Kochia (Kochia scoparia) [12]; [21]): 60% | pest or weed control at 500 g/ha (Kochia (Kochia scoparia) [12]; Postemergence): 70% | plant injury at 500 g/ha [13]: 90% | pest or weed control at 125 g/ha [14, 21]: 80% | pest or weed control at 500 g/ha ([14]; Postemergence): 90%
